Measured values from publication PMC12040169 (PLOS Biology, 2025).

Assay: in vitro
Settings: human, hela cells, % viability

| SMILES | viability at 28.5 h, 10 µM |
| --- | --- |
| O=C(CN1C(=O)[C@@H]2CCCN2c2ncccc21)NC(c1ccccc1)c1ccccc1 [CBK286205] | 121% |
| CC(C)NC(=O)CN(C)Cc1nc(-c2cccc(C(F)(F)F)c2)no1 [CBK306036] | 72.2% |
| O=C(O)C(c1c[nH]c2cc(F)ccc12)N1CCN(CC(=O)N2CCOCC2)CC1 (centres unmarked) [CBK286825] | 86.5% |
| O=C(CCn1c(CO)nc2ccccc21)c1ccccc1 [CBK296947] | 102% |
| COCCCNC(=O)c1cnn2c(C)c(Cc3ccccc3)c(C)nc12 [CBK162216] | 94.6% |
| O=C(Nc1ccc(N2CCN(Cc3ccccc3)CC2)cc1)c1cncc(Br)c1 [CBK267093] | 85% |
| N=c1n(CCN2CCCCC2)c2ccccc2n1CC(O)COc1ccccc1 (centres unmarked) [CBK262451C] | 88.5% |
| CCc1c(C(=O)N(C)Cc2cnn(C(C)C)c2)[nH]c2ccccc12 [CBK307501] | 92.9% |
| CCOC(=O)N1CCC(NC(=O)N2CCN(c3ccccc3)CC2)CC1 [CBK155210] | 113% |
| COc1ccc(C(C)NC(=O)C2CCCCC2C(=O)O)cc1OC (centres unmarked) [CBK270309] | 91.1% |
| O=c1c2ccccc2n2c(=O)[nH]nc2n1-c1ccccc1 [CBK288352] | 104% |
| COC(=O)c1ccc(N2CCOCC2)c(NC(=O)c2cccnc2)c1 [CBK270257] | 95.9% |
| Cc1cc(-c2cn3cc(C(=O)NCCN(C)C)nc3c(=O)n2C)c(C)o1 [CBK307160] | 94.3% |
| CCc1cc(Br)ccc1S(=O)(=O)Nc1cccc2cccnc12 [CBK045012] | 87.8% |
| c1ccc(CN2CCN(Cc3ccccc3)C2c2cccnc2)cc1 [CBK260885] | 93.2% |
| COC(=O)c1ccc(/C=N/NC(=O)CCc2c(C)n[nH]c2C)cc1 [CBK262904] | 117% |
| COc1ccc(CCC(C)N2CCN(c3ccc(F)cc3)CC2)cc1 (centres unmarked) [CBK261922] | 103% |
| CN1CCC(N2CCN(C(=O)NCCOc3ccccc3)CC2)CC1 [CBK156098] | 86.9% |
| c1ccc(C(Oc2nccnc2-c2ccncc2)c2ccccc2)cc1 [CBK106728] | 89.1% |
| CCc1ccccc1NC(=O)Cc1ccc(OC)cc1 [CBK087898] | 85.7% |
| COc1cc(-c2cc(-c3ccccc3)nc(SCC(=O)O)c2C#N)cc(OC)c1OC [CBK131867] | 99.3% |
| COc1ccc(N2CCN(/C(=N/S(=O)(=O)c3ccccc3)Nc3nc(C)cc(C)n3)CC2)cc1 [CBK266750] | 88.7% |
| CN(C)C(=O)C1(Cc2ccccc2-c2cccs2)CCN(C(=O)Cc2ccccc2)CC1 [CBK285687] | 92.6% |

| SMILES | viability at 28.5 h, 10 µM |
| --- | --- |
| O=C(Nc1cccc(Cl)c1)Nc1ccccc1NC(=O)Nc1cccc(Cl)c1 [CBK267624] | 92.4% |
| O=C(O)c1ccc(Cl)c2c1C1C=CCC1C(c1ccccn1)N2 (centres unmarked) [CBK287087] | 86.9% |
| N#Cc1ccc(N2C(=O)c3ccccc3S2(=O)=O)cc1 [CBK113195] | 113% |
| Cc1nc2ccc(C(=O)NC(C)c3ccccn3)cc2s1 (centres unmarked) [CBK281890] | 94.6% |
| O=C(CCN1C(=O)/C(=C\C=C\c2ccccc2)SC1=S)Nc1cc(Cl)ccc1O [CBK264792] | 96.2% |
| O=C1N(c2cccc(Cl)c2)Cc2nc(=O)[nH]n21 [CBK288430] | 85.1% |
| CS(=O)(=O)N1CC[C@H](c2nc3ccccc3s2)C1 [CBK289374] | 77.8% |
| Cc1ncncc1C(=O)N1CCc2sccc2C1c1ccccc1 (centres unmarked) [CBK281386] | 113% |
| Nc1cc2cccnc2nc1-c1ccncc1 [CBK067601] | 96.5% |
| Cc1c(Cl)cccc1S(=O)(=O)Nc1cccc(C(=O)Nc2ccc(F)cc2)c1 [CBK038983] | 99.3% |
| CCOC(=O)N1CCC(NS(=O)(=O)c2ccc3c(c2)oc(=O)n3C)CC1 [CBK304666] | 84.5% |
| O=C(Cn1cc(Br)ccc1=O)NC1CCN(CCc2ccccc2)CC1 [CBK305887] | 99.5% |
| O=C(CCc1cccnc1)Nc1ccc(Oc2ccccc2)cc1 [CBK295168] | 99.8% |
| Cc1ccc(-n2ncc3c(NCCc4ccc(S(N)(=O)=O)cc4)ncnc32)c(C)c1 [CBK265676] | 92.4% |
| O=C(Nc1nc2ccccc2s1)c1cccnc1Cl [CBK071983] | 108% |
| COc1cccc(CN2CCC3(CC2)NC(=O)Cc2ccc(C)cc23)c1 [CBK040219] | 88.5% |
| O=C(NC1CCCOC1)c1cc(-c2cccs2)no1 (centres unmarked) [CBK282565] | 82% |
| COc1cc(/C=N/NC(N)=O)ccc1OC(=O)c1sc2ccccc2c1Cl [CBK262265] | 85% |
| CC1(C)CCCN(Cc2nnnn2-c2ccc(S(C)(=O)=O)cc2)C1 [CBK306181] | 91.7% |
| COc1ccnc(N2CCN(C(=O)c3cccc4c3NCCC4)CC2)n1 [CBK306639] | 109% |
| O=C(CCSc1nnnn1-c1ccc(C(=O)O)cc1)Nc1ccc(F)cc1 [CBK300497] | 88.4% |
| Cc1ccc(S(N)(=O)=O)cc1C(=O)NC(C)CCc1ccccc1 (centres unmarked) [CBK296671] | 87.2% |
| COc1ccc(-n2[nH]c(C)c(Cc3c(Cl)cccc3Cl)c2=O)cc1 [CBK084521] | 94.5% |

| SMILES | viability at 28.5 h, 10 µM |
| --- | --- |
| c1ccc(Cn2cc(-c3nccnc3OC(c3ccccc3)c3ccccc3)cn2)cc1 [CBK107093] | 88.2% |
| COc1ccc(-c2ncc(OCc3cccs3)nc2N)c(OC)c1 [CBK145088] | 84% |
| CCOC(=O)C1CCN(C(=O)c2c(-c3ccccc3)noc2C)CC1 [CBK158704] | 86.3% |
| COc1ccc(S(=O)(=O)N(CCc2ccccc2)CC(=O)O)cc1C [CBK268505] | 95% |
| O=C(O)CCC(=O)N[C@H]1CCN2C(=O)c3cc(-c4ccc(Cl)cc4)ccc3NC(=O)[C@H]12 [CBK289275] | 115% |
| COc1ccc(CCNC(=O)CC2Sc3ccc(C(F)(F)F)cc3NC2=O)cc1OC (centres unmarked) [CBK265341] | 91.7% |
| O=C(CSc1nnc(-c2ccc3c(c2)OCO3)n1-c1ccccc1)c1ccc(Cl)cc1 [CBK263559] | 100% |
| O=C(Nc1cc(-c2nc3ncccc3o2)ccc1Cl)c1ccc(-c2ccccc2[N+](=O)[O-])o1 [CBK264097] | 89% |
| CCN1CCCN(c2cc(OCc3ccc(Cl)c(Cl)c3)ncn2)CC1 [CBK083786] | 92.3% |
| COc1ccc(OC(=O)c2ccc3ncccc3c2)cc1 [CBK083572] | 96.3% |
| Cc1nc(C)c(CC(=O)N2CCC(Oc3cccc(F)c3)CC2)s1 [CBK282223] | 97.4% |
| O=C(N[C@@H]1CNCCC[C@H]1O)c1ccc(OCCN2CCOCC2)cc1 [CBK289065] | 98.3% |
| Cc1cc(C)c2c(n1)OC(N1CCOCC1)(C(F)(F)F)CC2=O (centres unmarked) [CBK267301] | 79.2% |
| COc1ncccc1C(=O)Nc1ccc(C)nc1C [CBK200292] | 90.6% |
| Cc1cc(C(=O)N2CCC(c3nn(C)c4ncccc34)CC2)cs1 [CBK284987] | 104% |
| Cc1nnc(SCC(=O)Nc2nsc(-c3ccc(Cl)cc3)n2)s1 [CBK266525] | 91.5% |
| O=C1Nc2ccccc2C12CC(c1ccccc1Cl)=NN2 (centres unmarked) [CBK288004] | 111% |
| Cc1ccc2c(c1)C(NC(=O)C1CC1C)CC1(CCOCC1)O2 (centres unmarked) [CBK284880] | 91.8% |
| COC(=O)c1ccc(NC(=O)CSc2nnc(-c3ccc(C)cc3)n2N)cc1 [CBK266114] | 89.9% |
| O=C(O)CC1C(=O)NCCN1Cc1ccc(F)c(F)c1 (centres unmarked) [CBK270008] | 85.3% |
| O=S(=O)(O)c1cc(O)c2c(S(=O)(=O)O)cc(S(=O)(=O)O)cc2c1 [CBK278164N] | 94.9% |
| COc1ccc(C(=O)N2CCC3(CCN(C(=O)c4ccc5[nH]c(=O)[nH]c5c4)C3)C2)cc1OC (centres unmarked) [CBK131793] | 100% |
| O=c1[nH]c(=O)n([C@H]2C[C@H](O)[C@@H](CO)O2)cc1I [CBK200650] | 96.5% |

| SMILES | viability at 28.5 h, 10 µM |
| --- | --- |
| CSCCN(C)C(=O)c1nnn(Cc2ccc(F)cc2F)c1C [CBK306468] | 93.2% |
| CC(=O)Oc1cccc(CN2CCCN(S(=O)(=O)c3ccc(-c4ccccc4)cc3)CC2)c1 [CBK063113] | 94.1% |
| O=S(=O)(c1ccc(-c2cncc(-c3ccc(O)cc3)n2)cc1)N1CCOCC1 [CBK123786] | 84.6% |
| COc1ccc(/C=C(/C#N)C(=O)Nc2cccc(C)c2C)cc1C(=O)O [CBK262751] | 87.4% |
| Cc1c(NCc2ccc3c(c2)n(C)c(=O)n3C)cccc1C(=O)O [CBK287237] | 98.6% |
| COc1ccccc1-c1cc([C@H]2CN3CC[C@H]2C[C@@H]3CNC(=O)c2ccco2)nc(C)n1 [CBK289119] | 105% |
| COc1ccc(NC(=O)C(C)Sc2nc(N)cc(O)n2)cc1 (centres unmarked) [CBK265699] | 106% |
| Cc1csc(C(Cc2cccs2)NC(=O)CN2CCCC2=O)n1 (centres unmarked) [CBK284691] | 109% |
| COC(=O)N1CC2(CCCCC2NCc2c[nH]c(C)n2)c2ccccc21 (centres unmarked) [CBK083547T] | 108% |
| CCN(C(=O)c1cc2ccc(N(C)C)cc2[nH]1)C1CCN(C)CC1 [CBK281867] | 79.8% |
| O=S(=O)(Nc1ccccn1)c1cccs1 [CBK043773] | 94.7% |
| Cc1cc(NC(=O)c2cc3ccccc3oc2=O)nc2c1c(=O)oc1ccccc12 [CBK287445] | 100% |
| CC(C(=O)Nc1ccc(S(N)(=O)=O)cc1)N(C)Cc1cccs1 (centres unmarked) [CBK305945] | 88.8% |
| CCn1ncc2c1CCCC2NC1CCCN(c2cnn(C)c2)C1=O (centres unmarked) [CBK305316] | 88.7% |
| COC(=O)c1ccsc1NC(=O)CN1CCNCC1 [CBK057080] | 88.5% |
| O=C(O)CCC(=O)Nc1cccc2ccccc12 [CBK260889] | 112% |
| O=C1Nc2cc(Cl)ccc2C(=O)N2CC[C@H](NC(=O)N3CCOCC3)[C@@H]12 [CBK289340] | 87.7% |
| Cc1ccc(S(=O)(=O)Nn2cnnc2)cc1 [CBK027263] | 108% |
| O=C(CCn1c(C(F)(F)F)cc2cccnc21)NC1CCCOC1 (centres unmarked) [CBK284867] | 109% |
| O=C(Nc1cccc(C(F)(F)F)c1)N1CCC(n2c(=O)[nH]c3ccccc32)CC1 [CBK149845] | 84.6% |
